# In the NIST ThermoML archive (doi:10.1021/je0504111):
# Numbers after ± are expanded uncertainties.
# Legend:
# [1] = refractive index (Na D-line) (dimensionless); xn = mol fraction of the nth substance listed; conditions: 298.15 K, 101 kPa, Liquid
# [2] = xn = mol fraction of the nth substance listed; conditions: 298.15 K; for surface tension liquid-gas: Drop volume; for mass density: 101 kPa, Liquid
# [3] = 298.15 K; for surface tension liquid-gas: Drop volume; for mass density: 101.33 kPa, Liquid
# [4] = refractive index (Na D-line) (dimensionless); conditions: 298.15 K; 101.33 kPa; Liquid; Standard Abbe refractometry
compound,measurement,setting,value
"Cc1cccc(C)c1 [1,3-dimethylbenzene] + CCCCCC",refractive index,[1]; x2 = 0.0431,1.4891 ± 0.0007
same,refractive index,[1]; x2 = 0.083,1.484 ± 0.0007
same,refractive index,[1]; x2 = 0.1562,1.4748 ± 0.0007
same,refractive index,[1]; x2 = 0.2093,1.4682 ± 0.0007
same,refractive index,[1]; x2 = 0.2997,1.4569 ± 0.0007
same,refractive index,[1]; x2 = 0.3521,1.4502 ± 0.0007
same,refractive index,[1]; x2 = 0.4276,1.4409 ± 0.0007
same,refractive index,[1]; x2 = 0.5167,1.43 ± 0.0007
same,refractive index,[1]; x2 = 0.5798,1.4223 ± 0.0006
same,refractive index,[1]; x2 = 0.6769,1.4106 ± 0.0006
same,refractive index,[1]; x2 = 0.7318,1.404 ± 0.0006
same,refractive index,[1]; x2 = 0.8329,1.392 ± 0.0006
same,refractive index,[1]; x2 = 0.8836,1.386 ± 0.0006
same,refractive index,[1]; x2 = 0.9325,1.3803 ± 0.0006
same,surface tension liquid-gas,[2]; x2 = 0.0522,27.13 ± 0.2 mN/m
same,surface tension liquid-gas,[2]; x2 = 0.0797,26.69 ± 0.2 mN/m
same,surface tension liquid-gas,[2]; x2 = 0.1442,25.66 ± 0.19 mN/m
same,surface tension liquid-gas,[2]; x2 = 0.2008,24.85 ± 0.18 mN/m
same,surface tension liquid-gas,[2]; x2 = 0.2281,24.48 ± 0.18 mN/m
same,surface tension liquid-gas,[2]; x2 = 0.3075,23.5 ± 0.17 mN/m
same,surface tension liquid-gas,[2]; x2 = 0.3603,22.91 ± 0.17 mN/m
same,surface tension liquid-gas,[2]; x2 = 0.4106,22.39 ± 0.16 mN/m
same,surface tension liquid-gas,[2]; x2 = 0.4174,22.33 ± 0.16 mN/m
same,surface tension liquid-gas,[2]; x2 = 0.5086,21.5 ± 0.16 mN/m
same,surface tension liquid-gas,[2]; x2 = 0.5677,21.01 ± 0.15 mN/m
same,surface tension liquid-gas,[2]; x2 = 0.6431,20.41 ± 0.15 mN/m
same,surface tension liquid-gas,[2]; x2 = 0.6771,20.15 ± 0.15 mN/m
same,surface tension liquid-gas,[2]; x2 = 0.7418,19.7 ± 0.14 mN/m
same,surface tension liquid-gas,[2]; x2 = 0.7668,19.54 ± 0.14 mN/m
same,surface tension liquid-gas,[2]; x2 = 0.8545,18.99 ± 0.14 mN/m
same,surface tension liquid-gas,[2]; x2 = 0.8802,18.83 ± 0.14 mN/m
same,surface tension liquid-gas,[2]; x2 = 0.96,18.29 ± 0.14 mN/m
same,mass density,[2]; x2 = 0.0431,850.57 ± 0.55 kg/m3
same,mass density,[2]; x2 = 0.0825,842.28 ± 0.55 kg/m3
same,mass density,[2]; x2 = 0.1572,826.64 ± 0.55 kg/m3
same,mass density,[2]; x2 = 0.2093,815.69 ± 0.55 kg/m3
same,mass density,[2]; x2 = 0.2575,805.59 ± 0.56 kg/m3
same,mass density,[2]; x2 = 0.2997,796.8 ± 0.56 kg/m3
same,mass density,[2]; x2 = 0.3563,785.03 ± 0.56 kg/m3
same,mass density,[2]; x2 = 0.4278,770.24 ± 0.57 kg/m3
same,mass density,[2]; x2 = 0.483,758.86 ± 0.58 kg/m3
same,mass density,[2]; x2 = 0.5167,751.98 ± 0.58 kg/m3
same,mass density,[2]; x2 = 0.5833,738.31 ± 0.6 kg/m3
same,mass density,[2]; x2 = 0.6294,728.97 ± 0.6 kg/m3
same,mass density,[2]; x2 = 0.6769,719.32 ± 0.61 kg/m3
same,mass density,[2]; x2 = 0.7318,708.21 ± 0.62 kg/m3
same,mass density,[2]; x2 = 0.7817,698.13 ± 0.63 kg/m3
same,mass density,[2]; x2 = 0.8329,687.89 ± 0.65 kg/m3
same,mass density,[2]; x2 = 0.8914,676.22 ± 0.66 kg/m3
same,mass density,[2]; x2 = 0.9446,665.65 ± 0.67 kg/m3
CCCOC(=O)CC [propyl propanoate] + Cc1cccc(C)c1,refractive index,[1]; x1 = 0.0448,1.4894 ± 0.0007
same,refractive index,[1]; x1 = 0.1176,1.4814 ± 0.0007
same,refractive index,[1]; x1 = 0.1702,1.4756 ± 0.0007
same,refractive index,[1]; x1 = 0.2173,1.4704 ± 0.0007
same,refractive index,[1]; x1 = 0.3134,1.4599 ± 0.0007
same,refractive index,[1]; x1 = 0.3923,1.4515 ± 0.0007
same,refractive index,[1]; x1 = 0.4461,1.4458 ± 0.0007
same,refractive index,[1]; x1 = 0.4902,1.4412 ± 0.0007
same,refractive index,[1]; x1 = 0.5421,1.4358 ± 0.0007
same,refractive index,[1]; x1 = 0.5906,1.4308 ± 0.0007
same,refractive index,[1]; x1 = 0.6442,1.4254 ± 0.0007
same,refractive index,[1]; x1 = 0.7474,1.4151 ± 0.0007
same,refractive index,[1]; x1 = 0.7982,1.4101 ± 0.0007
same,refractive index,[1]; x1 = 0.8483,1.4052 ± 0.0007
same,refractive index,[1]; x1 = 0.8942,1.4008 ± 0.0007
same,refractive index,[1]; x1 = 0.9522,1.3952 ± 0.0007
CCCCCC [hexane],surface tension liquid-gas,[3],17.91 ± 0.13 mN/m
same,mass density,[3],654.7 ± 0.47 kg/m3
same,refractive index,[4],1.3723 ± 0.0004
CCCOC(=O)CC [propyl propanoate],surface tension liquid-gas,[3],24.1 ± 0.19 mN/m
same,mass density,[3],875.53 ± 0.61 kg/m3
same,refractive index,[4],1.3905 ± 0.0004
"Cc1cccc(C)c1 [1,3-dimethylbenzene]",surface tension liquid-gas,[3],28.03 ± 0.21 mN/m
same,mass density,[3],859.78 ± 0.63 kg/m3
same,refractive index,[4],1.4945 ± 0.0004
